Source: patent US20260193180A1, “AUTOPHAGY INDUCING COMPOUNDS AND USES THEREOF” (SAMSARA THERAPEUTICS INC., priority 2022, published 2026)

Columns and labels:
[1] = tested on: Human osteosarcoma U2OS cells; test: Acidic vesicle formation (lysosome/autolysosome staining, LysoView 633 / LysoTracker Deep Red), stimulation of autophagy; format: cell-based; conditions: 24 hours
Procedure, shortened: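 U2OS cells treated with compound for 24 h, then stained 45 min at 37° C with 1× LysoView 633 or 50 nM LysoTracker Deep Red plus Hoechst nuclei. Live-cell fluorescence images (Cy5/DAPI) scored for acidic vesicle formation relative to DMSO control.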

[2] = Bioavailability / brain exposure in CD1 mice; format: in vivo; conditions: dose of 30 mg/kg
Procedure: The compounds have good properties for oral dosing and readily cross the blood brain barrier. For example, in CD1 mice, Compound 9 has a maximum concentration in brain plasma of 5067 ng/ml after 30 minutes at a dose of 30 mg/kg. Compound 12 has a maximum concentration in brain plasma of 5853 ng/ml after 8 hours at a dose of 30 mg/kg.

[3] = tested on: C57BL/6JRj mice injured by intra-nigral injections of alpha-synuclein and CBE; test: Mouse model of Parkinson's disease (intra-nigral alpha-synuclein protofibrils plus CBE); format: in vivo; conditions: 30 mg/kg per os once a day
Description: This model (run by Neuro-Sys SAS, France) uses C57BL/6JRj mice injured by intra-nigral injections of a solution containing protofibrils of alpha-synuclein (α-syn, precisely quantified by automatic Western Blot) and combined with pharmacological inhibition of GBA by conduritol B epoxide (CBE), in aged mice. The model mimics the main pathologies of PD: loss of dopaminergic neurons in the substantia nigra, neuroinflammation, deficits in motor coordination and synucleinopathy (α-syn aggregation). Any substance with positive effects in this model may be useful as a new therapeutic agent for the treatment or prevention of PD.
• Type of animal: C57BL/6JRj (Male) • Age: 18 months old • Supplier: Janvier Labs • Animal number: 10 mice per group • Acclimation and clinical signs: Animals arrived on site 7 days (one week) before the experiment to allow optimal acclimation.
Overview: CBE was administered along with the test compounds, starting on the day of the stereotaxic injections of the α-syn oligomer preparation.
Test compounds at specific concentrations (see below) were administered per os (gavage or drinking water). • Test compound treatment: The test compounds were solubilized (vehicle=water), aliquoted and stored at −20° C. Aliquots were thawed overnight at 4° C. and given once a day. Treatment started on the day of the stereotaxic injections of α-syn preparation (Day 0). Treatment was administrated until the last day of the experiment (Day 28; =day of dissection). • CBE dose and administration: 50 mg/kg, Intraperitoneal (i.p.), twice a day. • CBE treatment: Administration of CBE (vehicle=saline [NaCl 0.9%] started on the day of the stereotaxic injections of α-syn preparation (Day 0). Treatment was administrated until the last day of the experiment (Day 28; =day of dissection), • Untreated control: vehicle (saline; i.p.) administered twice a day, • Stereotaxic injections of α-syn oligomers: Human α-syn peptide (stock at 69 μM in water at −20° C.) was reconstituted at 50 μM in NaCl, 0.9% (final concentration). All mice in compound treated groups were subjected to surgery and received 2.5 μL of α-syn solution. Mice were anesthetized by isoflurane (4%, for induction), in an induction chamber coupled with a vaporizer and to an oxygen concentrator. Mice were placed on the stereotaxic frame. Anesthesia was maintained by isoflurane (2%) with a face mask coupled to the isoflurane vaporizer and oxygen concentrator machine. The skull was exposed and holes were drilled. The α-syn preparation was bilaterally injected into the SNpc, at the following coordinates: A-P, −0.3 mm; M-L, +0.12 mm; D-V, −0.45 mm. Depth of anesthesia and rectal temperature were verified every 5 minutes. After surgery, mice were allowed to recover before being placed back in the cage.
• i) Body mass • ii) Assessment of motor coordination: bar test and grid walking test • iii) Dopaminergic Tyrosine hydroxylase (TH)-positive neuron survival in the substantia nigra pars compacta (SNpc), i.e. a measure of the number of TH neurons in the SNpc • iv) α-syn area in TH positive neurons (a measure of the degree of aggregation of α-syn in TH positive neurons, in the SNpc)
• Overall: For overall evaluation and body mass, mice were observed daily, and body mass was monitored prior to drug administration. • Assessment of motor coordination: bar test.
In the third week (Week 3) post-surgery, motor coordination of the mice was assessed with the bar test. The principle of the test is based on the capacity of the mice to cross a horizontal bar connected to a platform (18 mm of diameter, 60 cm long). The test requires good coordination between front and hindlimbs, and good balance. Mice are placed at one extremity of the bar and need to reach a platform located at the other side of the bar. Motor coordination was studied after two training sessions, one and two days before the test. Three sessions were recorded by a video camera system. […]

CCOc1ccc(Cl)cc1CN1CC[C@@H](CN)C1.Cl [Compound 12, (S)-(1-(5-chloro-2-ethoxybenzyl)pyrrolidin-3-yl)methanamine hydrochloride]
activation at 0.8 µM ([1]; 0.8 μM, read-out: Activity (percentage increase in acidic vesicle formation over the DMSO-treated control)): 30 to 50% | activation at 10 µM ([1]; 10 μM, read-out: increase in acidic vesicle formation over the DMSO-treated control): ≥ 25% | maximum concentration in brain plasma [2]: 5853 ng/mL | time of maximum concentration in brain plasma [2]: 8 h | bar test: decrease in the mean time required to cross the bar compared to the α-syn/CBE injured group ([3]; week 3): 21% | bar test: reduction in the mean number of steps required to cross the bar compared to the α-syn/CBE injured group ([3]; week 3): 2% | bar test: reduction in the number of misplaced steps (failed strides) compared to the α-syn/CBE injured group ([3]; week 3): 33% | decrease in the aggregation of α-syn in TH neurons (α-syn area) compared to the α-syn/CBE injured group ([3]; week 4): 10% | grid walking test: increase in the total distance travelled during the test ([3]; week 4): 12% | grid walking test: reduction in the mean number of failures per meter (number of missed steps) ([3]; week 4): 21% | increase in the number of dopaminergic TH positive neurons in the SNpc compared to the α-syn/CBE injured group ([3]; week 4): 36%
